How the values were obtained:
[1] = biological target: T1, Mast/stem cell growth factor receptor Kit (Homo sapiens, UniProt P10721); test: Inhibition of human wild type KIT assessed as [gamma33P]ATP incorporation into polyGluTyr after 60 mins by microplate scintillation counting
[2] = biological target: Tyrosine-protein kinase ABL1 (Homo sapiens, UniProt P00519); test: Inhibition of human wild type ABL1 assessed as [gamma33P]ATP incorporation into poly-Ala-Glu-Lys-Tyr after 60 mins by microplate scintillation counting
Chain of Tyrosine-protein kinase ABL1 (P00519 whole entry): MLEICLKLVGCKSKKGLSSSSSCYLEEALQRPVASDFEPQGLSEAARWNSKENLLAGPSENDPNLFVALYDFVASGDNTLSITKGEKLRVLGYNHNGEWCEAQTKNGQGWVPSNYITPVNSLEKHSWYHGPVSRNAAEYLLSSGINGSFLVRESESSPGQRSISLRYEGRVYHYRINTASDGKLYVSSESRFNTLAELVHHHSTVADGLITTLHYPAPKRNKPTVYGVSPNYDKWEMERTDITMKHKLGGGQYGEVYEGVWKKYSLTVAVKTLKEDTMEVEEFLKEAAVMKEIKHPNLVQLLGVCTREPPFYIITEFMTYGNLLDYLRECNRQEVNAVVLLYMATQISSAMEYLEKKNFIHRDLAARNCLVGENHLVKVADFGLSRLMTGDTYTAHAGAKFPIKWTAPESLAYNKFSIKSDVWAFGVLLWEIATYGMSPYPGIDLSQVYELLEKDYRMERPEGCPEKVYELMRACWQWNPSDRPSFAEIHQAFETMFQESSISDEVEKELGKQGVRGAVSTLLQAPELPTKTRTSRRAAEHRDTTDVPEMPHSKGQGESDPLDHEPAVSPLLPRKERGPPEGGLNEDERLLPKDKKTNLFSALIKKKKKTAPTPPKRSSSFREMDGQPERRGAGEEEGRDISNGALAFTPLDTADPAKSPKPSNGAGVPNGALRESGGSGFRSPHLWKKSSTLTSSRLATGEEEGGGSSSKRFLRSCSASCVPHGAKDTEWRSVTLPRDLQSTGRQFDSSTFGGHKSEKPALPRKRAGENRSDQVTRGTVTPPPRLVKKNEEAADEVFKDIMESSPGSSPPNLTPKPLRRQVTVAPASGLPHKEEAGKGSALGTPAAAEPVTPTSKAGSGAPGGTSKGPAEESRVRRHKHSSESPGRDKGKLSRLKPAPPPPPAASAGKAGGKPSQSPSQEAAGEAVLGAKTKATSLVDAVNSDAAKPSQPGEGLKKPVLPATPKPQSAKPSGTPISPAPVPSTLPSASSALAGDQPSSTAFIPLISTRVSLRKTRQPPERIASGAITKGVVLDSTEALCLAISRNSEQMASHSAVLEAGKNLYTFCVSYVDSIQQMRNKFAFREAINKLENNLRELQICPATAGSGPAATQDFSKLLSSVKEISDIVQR

[3] = biological target: Platelet-derived growth factor receptor beta (Homo sapiens) (UniProt P09619); test: Binding affinity to human PDGFRbeta cysteine residue assessed as residual binding at 1 uM by site dependent competitive binding assay
[4] = biological target: Tyrosine-protein kinase JAK3 (Homo sapiens) (UniProt P52333); test: Binding affinity to human Jak3 domain 1 assessed as residual binding at 1 uM by site dependent competitive binding assay
[5] = biological target: T1, Mast/stem cell growth factor receptor Kit; test: Binding affinity to human Kit cysteine residue assessed as residual binding at 1 uM by site dependent competitive binding assay
[6] = biological target: Protein-tyrosine kinase 2-beta (Homo sapiens) (UniProt Q14289); test: Binding affinity to human Pyk2 assessed as residual binding at 1 uM by site dependent competitive binding assay
[7] = biological target: Serine/threonine-protein kinase 3 (Homo sapiens) (UniProt Q13188); test: Binding affinity to human Mst2 […] residue assessed as residual binding at 1 uM by site dependent competitive binding assay
[8] = biological target: Ephrin type-A receptor 8 (Homo sapiens) (UniProt P29322); test: Binding affinity to human EPHA8 tyrosine residue assessed as residual binding at 1 uM by site dependent competitive binding assay
[9] = biological target: Receptor-type tyrosine-protein kinase FLT3 (Homo sapiens) (UniProt P36888); test: Binding affinity to human Flt3 assessed as residual binding at 1 uM by site dependent competitive binding assay
[10] = test system: Mast/stem cell growth factor receptor Kit (Homo sapiens), P10721 [V559D]; test: Binding affinity to human Kit V559D mutant cysteine residue assessed as residual binding at 1 uM by site dependent competitive binding assay
Chain of Mast/stem cell growth factor receptor Kit (Homo sapiens), P10721 [V559D] (P10721 whole entry V559D, the tested form may be a part): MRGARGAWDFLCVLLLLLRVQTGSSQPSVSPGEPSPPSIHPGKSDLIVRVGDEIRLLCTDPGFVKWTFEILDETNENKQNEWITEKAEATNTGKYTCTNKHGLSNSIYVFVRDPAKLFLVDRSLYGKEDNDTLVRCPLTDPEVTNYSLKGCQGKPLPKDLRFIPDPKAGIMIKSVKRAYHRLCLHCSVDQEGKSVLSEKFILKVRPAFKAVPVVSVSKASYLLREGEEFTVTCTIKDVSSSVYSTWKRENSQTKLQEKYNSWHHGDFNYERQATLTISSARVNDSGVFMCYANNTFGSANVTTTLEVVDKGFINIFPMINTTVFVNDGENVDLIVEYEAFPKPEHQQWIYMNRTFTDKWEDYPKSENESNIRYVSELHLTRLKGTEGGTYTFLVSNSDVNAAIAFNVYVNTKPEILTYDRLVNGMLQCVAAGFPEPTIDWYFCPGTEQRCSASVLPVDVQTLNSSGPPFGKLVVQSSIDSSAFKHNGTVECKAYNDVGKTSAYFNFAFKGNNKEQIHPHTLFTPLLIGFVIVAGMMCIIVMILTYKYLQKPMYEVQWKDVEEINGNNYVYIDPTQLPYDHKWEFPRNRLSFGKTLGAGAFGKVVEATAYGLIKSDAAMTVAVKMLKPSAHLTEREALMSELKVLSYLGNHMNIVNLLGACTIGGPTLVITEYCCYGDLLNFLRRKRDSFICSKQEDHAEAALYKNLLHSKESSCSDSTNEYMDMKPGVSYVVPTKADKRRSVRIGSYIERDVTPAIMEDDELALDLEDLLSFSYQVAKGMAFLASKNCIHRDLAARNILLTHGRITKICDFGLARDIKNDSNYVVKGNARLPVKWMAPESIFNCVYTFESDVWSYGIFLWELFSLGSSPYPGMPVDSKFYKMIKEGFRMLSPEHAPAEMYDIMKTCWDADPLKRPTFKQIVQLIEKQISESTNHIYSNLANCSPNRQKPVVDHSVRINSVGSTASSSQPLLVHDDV

[11] = biological target: Discoidin domain-containing receptor 2 (Homo sapiens) (UniProt Q16832); test: Binding affinity to human DDR2 phenylalanine residue assessed as residual binding at 1 uM by site dependent competitive binding assay
[12] = biological target: Tyrosine-protein kinase Lck (Homo sapiens) (UniProt P06239); test: Binding affinity to human LCK tyrosine residue assessed as residual binding at 1 uM by site dependent competitive binding assay
[13] = biological target: T2, Platelet-derived growth factor receptor alpha (Homo sapiens, UniProt P16234); test: Binding affinity to human PDGFRalpha cysteine residue assessed as residual binding at 1 uM by site dependent competitive binding assay
T2 sequence (P16234 whole entry): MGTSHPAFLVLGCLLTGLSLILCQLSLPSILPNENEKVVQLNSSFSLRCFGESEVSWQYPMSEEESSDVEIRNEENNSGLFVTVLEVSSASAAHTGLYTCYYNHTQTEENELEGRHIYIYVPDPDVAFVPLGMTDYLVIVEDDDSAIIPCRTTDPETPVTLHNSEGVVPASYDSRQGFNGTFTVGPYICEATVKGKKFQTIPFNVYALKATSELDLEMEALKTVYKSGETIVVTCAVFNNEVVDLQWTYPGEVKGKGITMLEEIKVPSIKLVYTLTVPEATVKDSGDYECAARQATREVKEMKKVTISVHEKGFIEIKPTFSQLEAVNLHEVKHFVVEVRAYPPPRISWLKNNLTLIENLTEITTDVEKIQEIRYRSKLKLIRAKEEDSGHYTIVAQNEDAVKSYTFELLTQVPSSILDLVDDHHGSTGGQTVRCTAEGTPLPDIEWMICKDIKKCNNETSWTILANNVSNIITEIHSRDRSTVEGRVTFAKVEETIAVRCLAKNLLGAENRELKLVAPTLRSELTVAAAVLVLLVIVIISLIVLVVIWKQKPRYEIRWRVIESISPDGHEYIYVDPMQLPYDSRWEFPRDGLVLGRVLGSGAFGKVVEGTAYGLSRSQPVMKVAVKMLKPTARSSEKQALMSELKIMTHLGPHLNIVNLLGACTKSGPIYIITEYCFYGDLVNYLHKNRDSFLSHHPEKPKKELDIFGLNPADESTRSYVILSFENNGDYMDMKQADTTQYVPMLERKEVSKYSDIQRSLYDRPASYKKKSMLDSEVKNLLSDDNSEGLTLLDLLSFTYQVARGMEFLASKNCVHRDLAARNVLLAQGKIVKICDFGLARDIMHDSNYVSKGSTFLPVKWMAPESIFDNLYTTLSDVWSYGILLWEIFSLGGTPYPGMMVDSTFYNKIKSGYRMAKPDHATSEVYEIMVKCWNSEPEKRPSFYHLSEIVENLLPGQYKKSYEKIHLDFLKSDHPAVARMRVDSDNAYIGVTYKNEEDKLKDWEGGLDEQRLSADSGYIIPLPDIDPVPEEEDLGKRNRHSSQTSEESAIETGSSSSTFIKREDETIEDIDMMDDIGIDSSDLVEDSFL

[14] = biological target: Calcium/calmodulin-dependent protein kinase kinase 1 (Homo sapiens) (UniProt Q8N5S9); test: Binding affinity to human CAMKK1 isoleucine residue assessed as residual binding at 1 uM by site dependent competitive binding assay
[15] = biological target: Cyclin-dependent kinase-like 1 (Homo sapiens) (UniProt Q00532); test: Binding affinity to human CDKL1 assessed as residual binding at 1 uM by site dependent competitive binding assay
[16] = biological target: Vascular endothelial growth factor receptor 3 (Homo sapiens) (UniProt P35916); test: Binding affinity to human Flt4 assessed as residual binding at 1 uM by site dependent competitive binding assay
[17] = biological target: Fibroblast growth factor receptor 4 (Homo sapiens) (UniProt P22455); test: Binding affinity to human Fgfr4 assessed as residual binding at 1 uM by site dependent competitive binding assay
[18] = biological target: Cyclin-G-associated kinase (Homo sapiens) (UniProt O14976); test: Binding affinity to human GAK isoleucine residue assessed as residual binding at 1 uM by site dependent competitive binding assay
[19] = biological target: Tyrosine-protein kinase ABL2 (Homo sapiens) (UniProt P42684); test: Binding affinity to human ABL2 phenylalanine residue assessed as residual binding at 1 uM by site dependent competitive binding assay
[20] = biological target: Tyrosine-protein kinase Lyn (Homo sapiens) (UniProt P07948); test: Binding affinity to human LYN tyrosine residue assessed as residual binding at 1 uM by site dependent competitive binding assay
[21] = biological target: Fibroblast growth factor receptor 1 (Homo sapiens) (UniProt P11362); test: Binding affinity to human Fgfr1 assessed as residual binding at 1 uM by site dependent competitive binding assay
[22] = biological target: Vascular endothelial growth factor receptor 1 (Homo sapiens) (UniProt P17948); test: Binding affinity to human Flt1 assessed as residual binding at 1 uM by site dependent competitive binding assay
[23] = biological target: Fibroblast growth factor receptor 3 (Homo sapiens) (UniProt P22607); test: Binding affinity to human Fgfr3 assessed as residual binding at 1 uM by site dependent competitive binding assay
[24] = biological target: Mitogen-activated protein kinase 9 (Homo sapiens) (UniProt P45984); test: Binding affinity to human Jnk2 isoleucine residue assessed as residual binding at 1 uM by site dependent competitive binding assay
[25] = biological target: T2, Platelet-derived growth factor receptor alpha; test: Inhibition of human wild type PDGFRalpha assessed as [gamma33P]ATP incorporation into poly-Ala-Glu-Lys-Tyr after 60 mins by microplate scintillation counting
[26] = test system: Serine/threonine-protein kinase B-raf (Homo sapiens), P15056 [V600E]; test: Binding affinity to human BRAF V600E mutant isoleucine residue assessed as residual binding at 1 uM by site dependent competitive binding assay
[27] = biological target: Fibroblast growth factor receptor 2 (Homo sapiens) (UniProt P21802); test: Binding affinity to human Fgfr2 assessed as residual binding at 1 uM by site dependent competitive binding assay
[28] = biological target: Serine/threonine-protein kinase MARK2 (Homo sapiens) (UniProt Q7KZI7); test: Binding affinity to human Mark2 isoleucine residue assessed as residual binding at 1 uM by site dependent competitive binding assay
Chain of Serine/threonine-protein kinase MARK2 (Homo sapiens) (Q7KZI7 whole entry): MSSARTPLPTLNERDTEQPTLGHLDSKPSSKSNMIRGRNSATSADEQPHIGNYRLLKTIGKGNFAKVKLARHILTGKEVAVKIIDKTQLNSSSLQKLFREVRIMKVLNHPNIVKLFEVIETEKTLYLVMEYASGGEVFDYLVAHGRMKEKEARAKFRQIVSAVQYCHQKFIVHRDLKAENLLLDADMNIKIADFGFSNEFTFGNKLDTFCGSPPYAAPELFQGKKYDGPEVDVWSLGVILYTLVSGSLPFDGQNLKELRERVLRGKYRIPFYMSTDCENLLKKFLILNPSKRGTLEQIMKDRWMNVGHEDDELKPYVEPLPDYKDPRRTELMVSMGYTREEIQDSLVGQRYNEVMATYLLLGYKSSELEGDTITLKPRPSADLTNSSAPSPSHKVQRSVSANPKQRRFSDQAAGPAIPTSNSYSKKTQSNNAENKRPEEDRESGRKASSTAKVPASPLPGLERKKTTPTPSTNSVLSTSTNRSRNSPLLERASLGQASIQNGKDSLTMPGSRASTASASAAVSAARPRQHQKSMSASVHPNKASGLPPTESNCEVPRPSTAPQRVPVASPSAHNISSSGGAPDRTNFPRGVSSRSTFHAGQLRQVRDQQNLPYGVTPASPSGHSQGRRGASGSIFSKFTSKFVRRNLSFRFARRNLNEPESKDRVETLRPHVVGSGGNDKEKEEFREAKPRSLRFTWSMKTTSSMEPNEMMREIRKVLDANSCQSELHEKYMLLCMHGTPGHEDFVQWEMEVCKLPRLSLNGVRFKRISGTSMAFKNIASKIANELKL

[29] = test system: Mast/stem cell growth factor receptor Kit (Homo sapiens), P10721 [V559D,V654A]; test: Binding affinity to human Kit V559D/V654A mutant cysteine residue assessed as residual binding at 1 uM by site dependent competitive binding assay
Chain of Mast/stem cell growth factor receptor Kit (Homo sapiens), P10721 [V559D,V654A] (P10721 whole entry V559D/V654A, the tested form may be a part): as the sequence (P10721 whole entry V559D, the tested form may be a part) above, with V654A counted along it

[30] = biological target: Epithelial discoidin domain-containing receptor 1 (Homo sapiens) (UniProt Q08345); test: Binding affinity to human DDR1 phenylalanine residue assessed as residual binding at 1 uM by site dependent competitive binding assay
[31] = biological target: Macrophage colony-stimulating factor 1 receptor (Homo sapiens) (UniProt P07333); test: Binding affinity to human CSF1R assessed as residual binding at 1 uM by site dependent competitive binding assay
[32] = biological target: Mitogen-activated protein kinase 10 (Homo sapiens) (UniProt P53779); test: Binding affinity to human Jnk3 isoleucine residue assessed as residual binding at 1 uM by site dependent competitive binding assay
[33] = biological target: T1, Mast/stem cell growth factor receptor Kit; test: Binding affinity to human Kit assessed as residual binding at 1 uM by site dependent competitive binding assay
[34] = biological target: T2, Platelet-derived growth factor receptor alpha; test: Binding affinity to human PDGFRalpha assessed as residual binding at 1 uM by site dependent competitive binding assay
[35] = biological target: Tyrosine-protein kinase Blk (Homo sapiens) (UniProt P51451); test: Binding affinity to human BLK serine residue assessed as residual binding at 1 uM by site dependent competitive binding assay
[36] = biological target: Tyrosine-protein kinase Fes/Fps (Homo sapiens) (UniProt P07332); test: Binding affinity to human Fes assessed as residual binding at 1 uM by site dependent competitive binding assay
[37] = biological target: Calcium/calmodulin-dependent protein kinase kinase 2 (Homo sapiens) (UniProt Q96RR4); test: Binding affinity to human CAMKK2 isoleucine residue assessed as residual binding at 1 uM by site dependent competitive binding assay
[38] = biological target: Mitogen-activated protein kinase 8 (Homo sapiens) (UniProt P45983); test: Binding affinity to human Jnk1 isoleucine residue assessed as residual binding at 1 uM by site dependent competitive binding assay
[39] = biological target: Macrophage colony-stimulating factor 1 receptor (Homo sapiens) (UniProt P07333); test: Binding affinity to human CSF1R cysteine residue assessed as residual binding at 1 uM by site dependent competitive binding assay
[40] = biological target: Serine/threonine-protein kinase 17A (Homo sapiens) (UniProt Q9UEE5); test: Binding affinity to human DRAK1 valine residue assessed as residual binding at 1 uM by site dependent competitive binding assay
[41] = biological target: Vascular endothelial growth factor receptor 2 (Homo sapiens) (UniProt P35968); test: Binding affinity to human Vegfr2 assessed as residual binding at 1 uM by site dependent competitive binding assay
[42] = biological target: Tyrosine-protein kinase Fer (Homo sapiens) (UniProt P16591); test: Binding affinity to human Fer assessed as residual binding at 1 uM by site dependent competitive binding assay
Chain of Tyrosine-protein kinase Fer (Homo sapiens) (P16591 whole entry, looked up): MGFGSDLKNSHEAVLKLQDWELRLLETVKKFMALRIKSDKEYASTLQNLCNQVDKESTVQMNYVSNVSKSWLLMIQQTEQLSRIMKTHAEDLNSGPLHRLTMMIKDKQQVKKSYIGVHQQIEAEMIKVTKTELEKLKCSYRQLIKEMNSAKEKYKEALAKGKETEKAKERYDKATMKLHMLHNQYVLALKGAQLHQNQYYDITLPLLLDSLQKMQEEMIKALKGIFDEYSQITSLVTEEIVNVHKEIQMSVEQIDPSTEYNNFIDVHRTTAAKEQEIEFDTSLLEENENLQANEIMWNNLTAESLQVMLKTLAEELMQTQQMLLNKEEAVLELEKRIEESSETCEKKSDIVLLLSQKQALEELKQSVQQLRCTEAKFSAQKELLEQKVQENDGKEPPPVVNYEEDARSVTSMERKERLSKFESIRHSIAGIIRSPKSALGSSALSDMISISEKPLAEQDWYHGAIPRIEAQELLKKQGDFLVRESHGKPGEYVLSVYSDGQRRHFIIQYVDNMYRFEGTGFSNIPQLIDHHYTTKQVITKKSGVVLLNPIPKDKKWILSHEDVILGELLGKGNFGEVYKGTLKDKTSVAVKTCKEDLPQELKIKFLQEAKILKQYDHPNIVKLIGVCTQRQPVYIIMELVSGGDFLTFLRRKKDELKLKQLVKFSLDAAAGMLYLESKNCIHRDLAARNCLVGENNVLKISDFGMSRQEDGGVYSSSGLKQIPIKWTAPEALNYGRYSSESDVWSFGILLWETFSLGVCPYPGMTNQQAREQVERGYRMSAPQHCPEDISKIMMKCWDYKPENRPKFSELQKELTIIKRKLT

[43] = biological target: Platelet-derived growth factor receptor beta (Homo sapiens) (UniProt P09619); test: Binding affinity to human PDGFRbeta assessed as residual binding at 1 uM by site dependent competitive binding assay
[44] = biological target: Fibroblast growth factor receptor 4 (Homo sapiens) (UniProt P22455); test: Binding affinity to human Fgfr4 assessed as residual binding at 10 uM by site dependent competitive binding assay
[45] = biological target: Serine/threonine-protein kinase 17A (Homo sapiens) (UniProt Q9UEE5); test: Binding affinity to human DRAK1 valine residue assessed as residual binding at 10 uM by site dependent competitive binding assay
[46] = biological target: Ephrin type-A receptor 8 (Homo sapiens) (UniProt P29322); test: Binding affinity to human EPHA8 tyrosine residue assessed as residual binding at 10 uM by site dependent competitive binding assay
[47] = biological target: Vascular endothelial growth factor receptor 3 (Homo sapiens) (UniProt P35916); test: Binding affinity to human Flt4 assessed as residual binding at 10 uM by site dependent competitive binding assay
[48] = biological target: Fibroblast growth factor receptor 3 (Homo sapiens) (UniProt P22607); test: Binding affinity to human Fgfr3 assessed as residual binding at 10 uM by site dependent competitive binding assay
[49] = biological target: Cyclin-G-associated kinase (Homo sapiens) (UniProt O14976); test: Binding affinity to human GAK isoleucine residue assessed as residual binding at 10 uM by site dependent competitive binding assay
[50] = biological target: Tyrosine-protein kinase Fer (Homo sapiens) (UniProt P16591); test: Binding affinity to human Fer assessed as residual binding at 10 uM by site dependent competitive binding assay
[51] = biological target: Tyrosine-protein kinase Blk (Homo sapiens) (UniProt P51451); test: Binding affinity to human BLK serine residue assessed as residual binding at 10 uM by site dependent competitive binding assay
[52] = biological target: Vascular endothelial growth factor receptor 1 (Homo sapiens) (UniProt P17948); test: Binding affinity to human Flt1 assessed as residual binding at 10 uM by site dependent competitive binding assay
[53] = biological target: Serine/threonine-protein kinase MARK2 (Homo sapiens) (UniProt Q7KZI7); test: Binding affinity to human Mark2 isoleucine residue assessed as residual binding at 10 uM by site dependent competitive binding assay

T1 sequence (P10721 whole entry): as the sequence (P10721 whole entry V559D, the tested form may be a part) above, with D559V counted along it

## C=C(C)C(=O)NCc1ccc(C(=O)Nc2ccc(C)c(Nc3nccc(-c4cccnc4)n3)c2)cc1
[1]
  IC50: 2740 nM
[2]
  IC50: > 20000 nM

## Cc1ccc(NC(=O)c2ccc(CNC(=O)CCl)cc2)cc1Nc1nccc(-c2cccnc2)n1
[3]
  Activity: 0%
[4]
  Activity: 100%
[5]
  Activity: 0%
[6]
  Activity: 68%
[7]
  Activity: 100%
[8]
  Activity: 100%
[9]
  Activity: 81%
[10]
  Activity: 0%
[11]
  Activity: 31%
[12]
  Activity: 64%
[13]
  Activity: 0.7%
[14]
  Activity: 100%
[15]
  Activity: 100%
[16]
  Activity: 100%
[17]
  Activity: 100%
[18]
  Activity: 18%
[19]
  Activity: 49%
[20]
  Activity: 76%
[21]
  Activity: 100%
[22]
  Activity: 86%
[23]
  Activity: 100%
[24]
  Activity: 4.6%
[25]
  IC50: 1080 nM
[1]
  IC50: 788 nM
[26]
  Activity: 4.6%
[27]
  Activity: 92%
[28]
  Activity: 100%
[29]
  Activity: 7%
[30]
  Activity: 0.5%
[31]
  Activity: 5%
[2]
  IC50: > 20000 nM
[32]
  Activity: 1.9%
[33]
  Activity: 0%
[34]
  Activity: 0.7%
[35]
  Activity: 69%
[36]
  Activity: 100%
[37]
  Activity: 100%
[38]
  Activity: 0.45%
[39]
  Activity: 5%
[40]
  Activity: 100%
[41]
  Activity: 64%
[42]
  Activity: 95%
[43]
  Activity: 0%

## C/C=C/C(=O)NCc1ccc(C(=O)Nc2ccc(C)c(Nc3nccc(-c4cccnc4)n3)c2)cc1
[1]
  IC50: 4710 nM
[2]
  IC50: > 20000 nM

## Cc1ccc(NC(=O)c2ccc(CN3CCN(C)CC3)cc2)cc1Nc1nccc(-c2cccnc2)n1
[44]
  Activity: 99%
[45]
  Activity: 5.2%
[46]
  Activity: 7.2%
[47]
  Activity: 85%
[48]
  Activity: 97%
[49]
  Activity: 5.1%
[50]
  Activity: 91%
[51]
  Activity: 0.8%
[52]
  Activity: 78%
[53]
  Activity: 8.8%

## Cc1ccc(NC(=O)c2ccc(CCl)cc2)cc1Nc1nccc(-c2cccnc2)n1
[1]
  IC50: 245 nM

## Cc1ccc(NC(=O)c2ccc(CN)cc2)cc1Nc1nccc(-c2cccnc2)n1
[1]
  IC50: 788 nM
[2]
  IC50: > 20000 nM
